Laboratory results from patent publication US20060100103A1, “Toning agents for use in thermographic recording materials” (AGFA-GEVAERT, priority 2004, published 2006).

Assay: Solubility in methyl ethyl ketone
Type: physicochemical

| Solubility in methyl ethyl ketone [wt %] | Compound |
| --- | --- |
| >2 | CN1C(=O)NS(=O)(=O)c2ccccc21 [TA01] |
| >10 | CC1=CC(=O)NS(=O)(=O)O1 [TA02] |
| 5.5 | O=C1CS(=O)(=O)OC2=C1CCCC2 [TA03] |
| >10 | O=C1NS(=O)(=O)Oc2ccccc21 [TA04] |
